Experimental data published in patent US20120141381A1, “Methods For Loading Contrast Agents Into A Liposome” (Duke University Office of Technology & Venture, priority 2009, published 2012).

Experiment: Measurement of relaxivity of Gd-HP-DO3A-Dox-LTSL at 1.5T
Assay type: physicochemical
Details: free contrast agent
Procedure: T1 of all of the solutions was calculated from the fit of signal intensity vs. inversion time in images obtained with a T1-weighted inversion recovery sequence with variable inversion time (T1=50, 75, 100, 150, 300, 450, 600, 900, 1050 ms). Relaxivity was obtained as the slope of 1/T1 vs. Gd-HP-DO3A concentration. All imaging was performed using a clinical 1.5T MR scanner (Philips Medical Systems, Best, The Netherlands).

CC(O)CN1CCN(CC(=O)[O-])CCN(CC(=O)[O-])CCN(CC(=O)[O-])CC1.[Gd+3] (stereo not shown) [ProHance®, gadolinium complex of 10-(2-hydroxy-propyl)-1,4,7,10-tetraazacyclododecane-1,4,7-triacetic acid]
relaxivity (slope of 1/T1 vs concentration): 4.05 ± 0.14 mM⁻¹ s⁻¹
